From US11214576B2, “2,3-dihydrofuro[2,3-b]pyridine compounds” (Eli Lilly and Company, priority 2018, dated 2022)

These compounds were tested against human O-GlcNAc-β-N-acetylglucosaminidase (OGA) (Homo sapiens (Human), UniProt O60502) (assay: In Vitro Human OGA Enzyme Assay). Details: full-length His-tagged human OGA; FD-GlcNAc substrate 6.7 μM; 30 min pre-incubation, 60 min reaction, pH 7.
human O-GlcNAc-β-N-acetylglucosaminidase (OGA), sequence (O60502 whole entry): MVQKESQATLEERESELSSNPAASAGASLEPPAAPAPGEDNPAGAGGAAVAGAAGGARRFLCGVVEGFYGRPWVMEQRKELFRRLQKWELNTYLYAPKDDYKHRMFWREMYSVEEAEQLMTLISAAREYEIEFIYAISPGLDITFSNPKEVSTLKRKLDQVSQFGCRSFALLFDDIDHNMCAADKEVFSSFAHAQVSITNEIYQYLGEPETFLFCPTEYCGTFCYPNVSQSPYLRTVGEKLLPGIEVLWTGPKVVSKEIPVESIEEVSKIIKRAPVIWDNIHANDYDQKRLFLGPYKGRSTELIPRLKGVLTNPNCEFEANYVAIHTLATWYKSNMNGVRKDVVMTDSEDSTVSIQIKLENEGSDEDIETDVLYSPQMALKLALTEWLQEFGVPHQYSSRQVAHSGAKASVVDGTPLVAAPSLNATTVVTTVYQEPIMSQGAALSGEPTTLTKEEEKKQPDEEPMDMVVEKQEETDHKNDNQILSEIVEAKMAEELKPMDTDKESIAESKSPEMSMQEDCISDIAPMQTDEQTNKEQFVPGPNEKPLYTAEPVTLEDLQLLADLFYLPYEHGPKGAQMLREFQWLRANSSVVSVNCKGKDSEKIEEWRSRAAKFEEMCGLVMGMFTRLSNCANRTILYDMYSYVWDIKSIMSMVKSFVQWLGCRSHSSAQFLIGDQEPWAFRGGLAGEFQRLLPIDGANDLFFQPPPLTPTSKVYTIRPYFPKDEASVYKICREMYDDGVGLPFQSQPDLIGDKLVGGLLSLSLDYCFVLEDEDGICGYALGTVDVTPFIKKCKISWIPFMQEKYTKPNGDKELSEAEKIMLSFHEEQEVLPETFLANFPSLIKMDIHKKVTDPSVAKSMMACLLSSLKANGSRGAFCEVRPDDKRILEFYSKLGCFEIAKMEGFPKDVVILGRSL
Assay type: biochemical
Method: The nucleotide sequence encoding full-length human O-GlcNAc-β-N-acetylglucosaminidase (NM_012215) is inserted into pFastBacl (Invitrogen) vector with an N-terminal poly-histidine (HIS) tag. Baculovirus generation is carried out according to the Bac-to-Bac Baculovirus Expression system (Invitrogen) protocol. Sf9 cells are infected at 1.5×10^6 cells/mL using 10 mL of P1 virus per Liter of culture and incubated at 28° C. for 48 hrs. Cells are spun down, rinsed with PBS and the pellets stored at −80° C. The above OGA protein (His-OGA) is purified as follows: 4 L of cells are lysed in 200 mL of buffer containing 50 mM Tris, pH 8.0, 300 mM NaCl, 10% glycerol, 10 mM imidazole, 1 mM dithiothreitol (DTT), 0.1% Triton™ X-100, 4 tablets of protease inhibitors (complete EDTA-Free, Roche) for 45 min at 4° C. This cell lysate is then spun for 40 min at 16500 rpm at 4° C., and supernatant incubated with 6 mL of Ni-NTA resin (nickel-nitrilotriacetic acid) for 2 hours at 4° C.
Resin is then packed onto column and washed with 50 mM Tris, pH 8.0, 300 mM NaCl, 10% glycerol, 10 mM imidazole, 0.1% Triton™ X-100, 1 mM DTT, followed by 50 mM Tris, pH 8.0, 150 mM NaCl, 10 mM imidazole, 10% glycerol, 1 mM DTT. The proteins are eluted with 50 mM Tris, pH 8.0, 150 mM NaCl, 300 mM imidazole, 10% glycerol, 1 mM DTT. Pooled His-OGA containing fractions are concentrated to 6 ml and loaded onto Superdex75 (16/60). The protein is eluted with 50 mM Tris, pH 8.0, 150 mM NaCl, 10% glycerol, 2 mM DTT. Fractions containing His-OGA are pooled and protein concentration measured with BCA ([…]).
The OGA enzyme catalyses the removal of O-GlcNAc from nucleocytoplasmic proteins. To measure this activity Fluorescein di-N-acetyl-β-N-acetyl-D-glucosaminide (FD-GlcNAc, Kim, Eun Ju; Kang, Dae Ook; Love, Dona C.; Hanover, John A. Carbohydrate Research (2006), 341(8), 971-982) is used as a substrate at a final concentration of 6.7 μM (in a 384 well assay format). This fluorogenic substrate becomes fluorescent upon cleavage by OGA, so that the enzyme activity can be measured by the increase in fluorescence detected at 535 nm (excitation at 485 nm).
The assay buffer is prepared to give a final concentration of 50 mM […], 0.01% bovine serum albumin and 0.01% Triton™ X-100 in water, at pH 7. Compounds to be tested are diluted in pure dimethyl sulfoxide (DMSO) using ten point concentration response curves. Maximal compound concentration in the reaction mixture is 30 or 1 μM. […] Then, without stopping the reaction, fluorescence is read. IC50 values are calculated by plotting the normalized data vs. log of the compound and fitting the data using a four parameter logistic equation.
For `Cc1nnc(C2CCN(C(C)c3nc4c(cc3F)CCO4)CC2)o1` (single isomer, unassigned; (-)) [Example 2, (−)-5-fluoro-6-[1-[4-(5-methyl-1,3,4-oxadiazol-2-yl)-1-piperidyl]ethyl]-2,3-dihydrofuro[2,3-b]pyridine], the IC50 was 1.13 ± 1.02 nM.
Work on `Cc1nnc(C2CCN(C(C)c3ccc4c(n3)OCC4)CC2)o1` (single isomer, unassigned; (-)) [Example 1, (−)-6-[1-[4-(5-methyl-1,3,4-oxadiazol-2-yl)-1-piperidyl]ethyl]-2,3-dihydrofuro[2,3-b]pyridine] yielded an IC50 of 1.24 ± 0.66 nM.
In the case of `Cc1nnc(C2CCN(C(C)c3ccc4c(n3)OCC4)CC2)o1` (single isomer, unassigned; (+)) [Example 3], the IC50 is reported as 611 nM.
`Cc1nnc(C2CCN(C(C)c3nc4c(cc3F)CCO4)CC2)o1` (single isomer, unassigned; (+)) [Example 4, (+)-5-fluoro-6-[1-[4-(5-methyl-1,3,4-oxadiazol-2-yl)-1-piperidyl]ethyl]-2,3-dihydrofuro[2,3-b]pyridine] showed an IC50 of 2660 ± 607 nM.
